Laboratory results published in patent publication US6716833B2, “Acetylenic α-amino acid-based sulfonamide hydroxamic acid tace inhibitors” (priority 1999, dated 2004).

Molecular target: TNF-α converting enzyme (TACE) (Homo sapiens, UniProt P78536)
Assay: TACE inhibition (fluorescent peptidyl substrate)
Format: biochemical
Conditions: 1 uM; Table 15

TNF-α converting enzyme (TACE), sequence (P78536 215-824, species assumed): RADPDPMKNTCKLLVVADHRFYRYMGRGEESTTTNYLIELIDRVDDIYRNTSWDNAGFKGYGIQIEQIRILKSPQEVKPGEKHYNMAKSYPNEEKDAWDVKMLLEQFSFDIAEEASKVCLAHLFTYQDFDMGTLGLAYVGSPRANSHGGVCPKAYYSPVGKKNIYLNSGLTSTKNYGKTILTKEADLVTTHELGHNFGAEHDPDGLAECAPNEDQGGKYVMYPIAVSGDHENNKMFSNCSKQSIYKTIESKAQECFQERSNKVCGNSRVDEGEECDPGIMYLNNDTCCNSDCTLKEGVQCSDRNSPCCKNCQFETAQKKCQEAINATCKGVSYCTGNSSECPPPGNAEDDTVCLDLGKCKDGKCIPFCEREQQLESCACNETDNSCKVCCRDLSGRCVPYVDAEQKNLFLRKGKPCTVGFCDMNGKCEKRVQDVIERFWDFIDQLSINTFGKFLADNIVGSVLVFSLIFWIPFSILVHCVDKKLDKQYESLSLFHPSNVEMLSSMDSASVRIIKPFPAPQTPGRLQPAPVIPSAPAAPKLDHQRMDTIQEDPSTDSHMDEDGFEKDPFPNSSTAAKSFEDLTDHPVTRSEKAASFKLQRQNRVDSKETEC

| % Inhibition at 1 uM (In Vitro Inhibition of TACE) | Compound |
| --- | --- |
| 29.7% | CC#CCOc1ccc(S(=O)(=O)NC(CCCN)C(=O)NO)cc1 (stereo not drawn) [Example 76] |
| 27.3% | CC#CCOc1ccc(S(=O)(=O)NC(Cc2ccc(O)cc2)C(=O)NO)cc1 (stereo not drawn) [Example 102] |

The next lines start with the molecule.

| Compound | % Inhibition at 1 uM (In Vitro Inhibition of TACE) |
| --- | --- |
| CC#CCOc1ccc(S(=O)(=O)NC(Cc2ccc(OCc3ccccc3)cc2)C(=O)NO)cc1 (stereo not drawn) [Example 103] | 52.8% |
| CC#CCOc1ccc(S(=O)(=O)NC(CCN)C(=O)NO)cc1 (stereo not drawn) [Example 70] | 21.1% |
| CC#CCOc1ccc(S(=O)(=O)NC(CO)C(=O)NO)cc1 (stereo not drawn) [Example 98] | 2.5% |
| CC#CCOc1ccc(S(=O)(=O)NC(Cc2c[nH]cn2)C(=O)NO)cc1 (stereo not drawn) [Example 87] | 47.8% |
| CC#CCOc1ccc(S(=O)(=O)NC(CC(C)C)C(=O)NO)cc1 (stereo not drawn) [Example 79] | 107% |
| CC#CCOc1ccc(S(=O)(=O)NC(CC(N)=O)C(=O)NO)cc1 (stereo not drawn) [Example 66] | 45.6% |

Same assay, conditions: 1 uM; Table 15; read-out: % Inhibition at 1 uM (In Vitro Inhibition of TACE)

| Compound | inhibition at 1 µM |
| --- | --- |
| CC#CCOc1ccc(S(=O)(=O)N[C@@H](C(=O)NO)C(C)C)cc1 [Example 85] | 102% |

Same assay, conditions: IC 50 nM (In Vitro Inhibition of TACE), Table 15

| IC50 | Compound |
| --- | --- |
| 6.32 nM | CC#CCOc1ccc(S(=O)(=O)N[C@H](CCCCNC(=O)c2ccc(OC)cc2)C(=O)NO)cc1 [Example 361, N-[(5R)-5-({[4-(But-2-ynyloxy)phenyl]sulfonyl}amino)-6-(hydroxyamino)-6-oxohexyl]-4-methoxybenzamide] |
| 4.6 nM | CC#CCOc1ccc(S(=O)(=O)N[C@H](CCCNC(=O)CCc2ccccc2)C(=O)NO)cc1 [Example 339, (2R)-2-({[4-(But-2-ynyloxy)phenyl]sulfonyl}amino)-N-hydroxy-5-[(3-phenylpropanoyl)amino]pentanamide] |
| 6.1 nM | CC#CCOc1ccc(S(=O)(=O)N[C@H](CCCCNC(=O)c2ccc(Cl)cc2)C(=O)NO)cc1 [Example 353, N-[(5R)-5-({[4-(But-2-ynyloxy)phenyl]sulfonyl}amino)-6-(hydroxyamino)-6-oxohexyl]-4-chlorobenzamide] |
| 4.43 nM | CC#CCOc1ccc(S(=O)(=O)N[C@H](CCCNC(=O)Cc2ccccc2)C(=O)NO)cc1 [Example 345, (2R)-2-({[4-(But-2-ynyloxy)phenyl]sulfonyl}amino)-N-hydroxy-5-[(2-phenylacetyl)amino]pentanamide] |
| 4.88 nM | CC#CCOc1ccc(S(=O)(=O)N[C@H](CCCNC(=O)c2cccnc2)C(=O)NO)cc1 [Example 341, N-[(4R)-4-({[4-(But-2-ynyloxy)phenyl]sulfonyl}amino)-5-(hydroxyamino)-5-oxopentyl]nicotinamide] |
| 4 nM | CC#CCOc1ccc(S(=O)(=O)N[C@H](Cc2ccc(F)cc2)C(=O)NO)cc1 [Example 316, (2R)-2-({[4-(But-2-ynyloxy)phenyl]sulfonyl}amino)-3-(4-fluorophenyl)-N-hydroxypropanamide] |
| 490 ± 139 nM | CC#CCOc1ccc(S(=O)(=O)N[C@@H](CCCCN)C(=O)NO)cc1 [Example 92] |
| 4.96 nM | CC#CCOc1ccc(S(=O)(=O)N[C@H](CCCCNC(=O)c2sccc2Cl)C(=O)NO)cc1 [Example 352, N-[(5R)-5-({[4-(But-2-ynyloxy)phenyl]sulfonyl}amino)-6-(hydroxyamino)-6-oxohexyl]-3-chlorothiophene-2-carboxamide] |
| 11.4 nM | CC#CCOc1ccc(S(=O)(=O)N[C@H](CCCCNC(=O)OCc2ccccc2)C(=O)NO)cc1 [Example 309, Benzyl(5R)-5-({[4-(but-2-ynyloxy)phenyl]sulfonyl}amino)-6-(hydroxyamino)-6-oxohexylcarbamate] |
| 9.28 nM | CC#CCOc1ccc(S(=O)(=O)N[C@H](CCCCNC(=O)c2ccncc2)C(=O)NO)cc1 [Example 359, N-[(5R)-5-({[4-(But-2-ynyloxy)phenyl]sulfonyl}amino)-6-(hydroxyamino)-6-oxohexyl]isonicotinamide] |
| 3.58 nM | CC#CCOc1ccc(S(=O)(=O)N[C@H](CCCNC(=O)c2ccccc2)C(=O)NO)cc1 [Example 330, N-[(4R)-4-({[4-(But-2-ynyloxy)phenyl]sulfonyl}amino)-5-(hydroxyamino)-5-oxopentyl]benzamide] |
| 6.26 nM | CC#CCOc1ccc(S(=O)(=O)N[C@H](CCCNC(C)=O)C(=O)NO)cc1 [Example 328, (2R)-5-(Acetylamino)-2-({[4-(but-2-ynyloxy)phenyl]sulfonyl}amino)-N-hydroxypentanamide] |

The next lines start with the molecule.

| Compound | IC50 |
| --- | --- |
| CC#CCOc1ccc(S(=O)(=O)N[C@H](CCCNC(=N)NS(=O)(=O)c2c(C)cc(OC)c(C)c2C)C(=O)NO)cc1 [Example 295] | 29.3 nM |
| CC#CCOc1ccc(S(=O)(=O)N[C@H](CCC(=O)O)C(=O)NO)cc1 [Example 304, (4R)-4-({[4-(But-2-ynyloxy)phenyl]sulfonyl}amino)-5-(hydroxyamino)-5-oxopentanoic acid] | 28.9 nM |
| CC#CCOc1ccc(S(=O)(=O)N[C@H](CCC)C(=O)NO)cc1 [Example 313, (2R)-2-({[4-(But-2-ynyloxy)phenyl]sulfonyl}amino)-N-hydroxypentanamide] | 6.3 nM |
| CC#CCOc1ccc(S(=O)(=O)N[C@H](CCCNC(=O)CN2CCOCC2)C(=O)NO)cc1 [Example 376, (2R)-2-({[4-(but-2-ynyloxy)Phenyl]sulfonyl}amino)-N-hydroxy-5-[(2-morpholin-4-ylacetyl)amino]pentanamide] | 21.9 nM |
| CC#CCOc1ccc(S(=O)(=O)N[C@H](CSCNC(C)=O)C(=O)NO)cc1 [Example 300, (2S)-3-{[(Acetylamino)methyl]thio}-2-({[4-(but-2-ynyloxy)phenyl]sulfonyl}amino)-N-hydroxypropanamide] | 11 nM |
| CC#CCOc1ccc(S(=O)(=O)N[C@H](CO)C(=O)NO)cc1 [Example 319, (2R)-2-({[4-(But-2-ynyloxy)phenyl]sulfonyl}amino)-N,3-dihydroxypropanamide] | 10.5 nM |
| CC#CCOc1ccc(S(=O)(=O)N[C@@H](C(=O)NO)[C@H](C)O)cc1 [Example 322, (2R,3S)-2-({[4-(But-2-ynyloxy)phenyl]sulfonyl}amino)-N,3-dihydroxybutanamide] | 11.8 nM |
| CC#CCOc1ccc(S(=O)(=O)N[C@@H](CSCc2ccc(OC)cc2)C(=O)NO)cc1 [Example 74] | 297 ± 119 nM |
| CC#CCOc1ccc(S(=O)(=O)N[C@H](Cc2ccc([N+](=O)[O-])cc2)C(=O)NO)cc1 [Example 317, (2R)-2-({[4-(But-2-ynyloxy)phenyl]sulfonyl}amino)-N-hydroxy-3-(4-nitrophenyl)propanamide] | 6.5 nM |
| CC#CCOc1ccc(S(=O)(=O)N[C@@H](C(=O)NO)C(C)C)cc1 [Example 85] | 8.3 ± 2.7 nM |
| CC#CCOc1ccc(S(=O)(=O)N[C@@H](C(=O)NO)c2ccccc2)cc1 [Example 327, (2R)-2-({[4-(But-2-ynyloxy)phenyl]sulfonyl}amino)-N-hydroxy-2-phenylethanamide] | 5.5 nM |
| CC#CCOc1ccc(S(=O)(=O)N[C@H](Cc2ccccc2)C(=O)NO)cc1 [Example 81] | 4.99 ± 1.1 nM |
| CC#CCOc1ccc(S(=O)(=O)N[C@H](Cc2cnc[nH]2)C(=O)NO)cc1 [Example 306, (2R)-2-({[4-(But-2-ynyloxy)phenyl]sulfonyl}amino)-N-hydroxy-3-(1H-imidazol-5-yl)propanamide] | 8.7 nM |
| CC#CCOc1ccc(S(=O)(=O)N[C@H](CCc2ccccc2)C(=O)NO)cc1 [Example 305, (2R)-2-({[4-(But-2-ynyloxy)phenyl]sulfonyl}amino)-N-hydroxy-4-phenylbutanamide] | 13.4 nM |

Same assay, conditions: read-out: IC 50 nM (In Vitro Inhibition of TACE); Table 15

| IC50 | Compound |
| --- | --- |
| 5.7 ± 2.5 nM | CC#CCOc1ccc(S(=O)(=O)NC(CC(C)C)C(=O)NO)cc1 (stereo not drawn) [Example 79] |
